# Source: patent US8288375B2, “Fungicidal bicyclic pyrazoles” (E.I. du Pont de Nemours and Company, priority 2007, dated 2012)
# Columns and labels:
# Type in all cases: in vivo
# [1] = system: Colletotrichum orbiculare; assay: Test F: cucumber Colletotrichum anthracnose, test suspension sprayed on cucumber seedlings, disease rating; settings: 200 ppm test suspension
# Botrytis cinerea = assay: Test H: tomato Botrytis, test suspension sprayed on tomato seedlings, disease rating; settings: 200 ppm test suspension
# Phytophthora infestans = assay: whole plant or invertebrate; settings: 200 ppm test suspension
# Pythium aphanidermatum = assay: Test L: bluegrass pythium blight, test suspension sprayed on bluegrass seedlings, disease rating; settings: 200 ppm test suspension;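 also: 200 ppm unless marked * meaning 40 ppm or ** meaning 10 ppm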
# Fusarium graminearum = assay: whole plant or invertebrate; settings: 200 ppm test suspension
# Rhizoctonia oryzae = assay: Test I: turf brown patch, test suspension sprayed on creeping bent grass seedlings, disease rating; settings: 200 ppm test suspension
# Septoria nodorum = assay: Test D: wheat glume blotch, test suspension sprayed on wheat seedlings, disease rating; settings: 200 ppm test suspension
# [2] = system: Puccinia recondite f sp. tritici; assay: Test B: wheat leaf rust, test suspension sprayed on wheat seedlings, disease rating; settings: 200 ppm test suspension;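 also: 200 ppm unless marked * meaning 40 ppm or ** meaning 10 ppm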
# [3] = system: Erysiphe graminis f. sp. tritici; assay: Test A: wheat powdery mildew, test suspension sprayed on wheat seedlings, disease rating; settings: 200 ppm test suspension; 100 = 100% disease control, 0 = no control
# Plasmopara viticola = assay: Test K: grape downy mildew, grape seedlings inoculated and then sprayed, disease rating; settings: 200 ppm test suspension
# Septoria tritici = assay: Test E: wheat leaf blotch, test suspension sprayed on wheat seedlings, disease rating; settings: 200 ppm test suspension;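 also: 200 ppm unless marked * meaning 40 ppm or ** meaning 10 ppm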
Structure (SMILES),Test F disease control rating [1],Test H disease control rating (Botrytis cinerea),Test J disease control rating (Phytophthora infestans),Test L disease control rating (Pythium aphanidermatum),Test C disease control rating (Fusarium graminearum),Test I disease control rating (Rhizoctonia oryzae),Test D disease control rating (Septoria nodorum),Test B disease control rating [2],Test A disease control rating [3],Test K disease control rating (Plasmopara viticola),Test E disease control rating (Septoria tritici)
CCC(C)Nc1nccc(-c2c(-c3ccc(F)cc3)nn3c2CCCC3)n1 (centres unmarked) [compound 20],88%,96%,99%,100%,100%,0%,99%,99%,78%,0%,–
CN(C)c1nccc(-c2c(-c3ccc(F)cc3)nn3c2CCCC3)n1 [compound 14],0%,0%,60%,0%,100%,0%,73%,91%,95%,0%,99%
CCC(C)c1ccc(Nc2nccc(-c3c(-c4ccc(F)cc4)nn4c3CCCC4)n2)cc1 (centres unmarked) [compound 9],79%,81%,0%,0%,99%,0%,92%,97%,52%,0%,0%
C#CCNc1nccc(-c2c(-c3ccc(F)cc3)nn3c2CCCC3)n1 [compound 17],77%,97%,100%,100%,100%,0%,98%,99%,64%,86%,–
CCC(C)Nc1nccc(-c2c(-c3ccc(F)cc3)nn3c2CCCC3)n1 (centres unmarked) [compound 19],66%,74%,31%,93%,100%,0%,98%,99%,26%,0%,–
CC(C)Nc1nccc(-c2c(-c3ccc(F)cc3)nn3c2CCC3)n1 [compound 91],16%,99%,0%,88%,100%,0%,98%,99%,74%,0%,–
CC(C)(C)CNc1nccc(-c2c(-c3ccc(F)cc3)nn3c2CCCC3)n1 [compound 3],0%,0%,0%,0%,99%,0%,0%,91%,47%,0%,72%
NCCNc1nccc(-c2c(-c3ccc(F)cc3)nn3c2CCCC3)n1 [compound 16],0%,19%,91%,70%,99%,0%,0%,99%,20%,0%,–
C=CCNc1nccc(-c2c(-c3ccc(F)cc3)nn3c2CCC3)n1 [compound 95],21%,87%,99%,95%,100%,0%,99%,100%,68%,0%,–
COc1ccc(-c2nn3c(c2-c2ccnc(NC4CC4)n2)CCC3)cc1 [compound 93],0%,0%,95%,90%,99%,0%,0%,0%,0%,0%,–
Fc1ccc(-c2nn3c(c2-c2ccnc(NC4CC4)n2)CCC3)c(F)c1 [compound 94],24%,96%,99%,99%,100%,16%,98%,97%,82%,0%,–
Fc1ccc(-c2nn3c(c2-c2ccnc(NC4CC4)n2)CCC3)cc1 [compound 92],80%,90%,99%,99%,100%,0%,99%,99%,94%,0%,–
CNc1nccc(-c2c(-c3ccc(F)cc3)nn3c2CCCC3)n1 [compound 13],31%,29%,97%,100%,100%,77%,97%,99%,98%,0%,–
CCC(C)CNc1nccc(-c2c(-c3ccc(F)cc3)nn3c2CCCC3)n1 (centres unmarked) [compound 6],0%,0%,0%,0%,100%,0%,0%,73%,0%,0%,–
C=CCNc1nccc(-c2c(-c3ccc(F)cc3)nn3c2CCCC3)n1 [compound 15],17%,92%,97%,100%,100%,0%,98%,99%,86%,0%,–
CCC(C)Nc1nccc(-c2c(-c3ccc(F)cc3)nn3c2CCC3)n1 (centres unmarked) [compound 85],88%,52%,67%,100%,100%,16%,82%,99%,0%,0%,–
COCC(C)Nc1nccc(-c2c(-c3ccc(F)cc3)nn3c2CCC3)n1 (centres unmarked) [compound 84],98%,52%,93%,100%,100%,16%,99%,99%,60%,0%,–
CCNc1nccc(-c2c(-c3ccc(F)cc3)nn3c2CCCC3)n1 [compound 18],98%,74%,99%,100%,100%,0%,97%,100%,96%,0%,–
CNc1nccc(-c2c(-c3ccc(F)cc3)nn3c2CCC3)n1 [compound 90],17%,0%,99%,97%,100%,0%,100%,99%,96%,0%,–
Nc1nccc(-c2c(-c3ccc(F)cc3)nn3c2CCCC3)n1 [compound 10],0%,63%,64%,42%,99%,0%,87%,99%,90%,0%,–
